Where a name gives a salt, the structure may show the parent alone.
Test system: human platelet aggregation induced by ADP
Assay: Inhibition of human platelet aggregation induced by ADP
Format: cell-based
Conditions: test compound 1.0 × 10^-7 M; human platelet rich plasma; ADP 2.5 μM final; 37° C.; mean ± S.E.
Description: Inhibition of human platelet aggregation induced by ADP
The citrate blood was centrifuged at 150 ×g for 10 minutes and the platelet rich plasma (PRP) was removed. The remaining blood was centrifuged for a further 10 minutes at 1500 ×g to prepare the platelet poor plasma (PPP), which was used as a reference for platelet aggregation. […] 25 μl of sample solution and 225 μl of PRP were mixed and stirred at 1000 rpm for 2 minutes at 37° C. Aggregation was induced by ADP solution at the final concentration of 2.5 μM.

O=C(O)COc1cccc(CC2CCCCC=C2c2nc(-c3ccccc3)c(-c3ccccc3)o2)c1 (centres unmarked) [Test Compound (1), Sodium [3-[[2-(4,5-diphenyloxazol-2-yl)-2-cyclohepten-1-yl]methyl]phenoxy]acetate]
inhibition at 0.1 µM: 88 ± 0.5%

O=C(O)COc1cccc2c1CCC[C@H]2N1CCC[C@@H]1c1nc(-c2ccccc2)c(-c2ccccc2)o1 [Test Compound (2), Sodium salt of (1R)-1-((2R)-2-(4,5-diphenyloxazol-2-yl)pyrrolidin-1-yl]-5-carboxymethoxy-1,2,3,4-tetrahydronaphthalene]
inhibition at 0.1 µM: 85 ± 7.6%
